Measured values: patent US20260317320A1, “C5AR1 ANTAGONISTS AND USES THEREOF” (Vanqua Bio, Inc., priority 2022, published 2026)
pIC50: −log10 of the molar value. Like-named read-outs stand apart in the source and are kept apart here.

Legend:
[1] = target: T1, complement C5a receptor 1 (C5aR1) (Homo sapiens, UniProt P21730); assay: β-arrestin recruitment via C5aR1 activation in live CHO-K1 cells (PathHunter), antagonist mode; assay type: cell-based; conditions: antagonist mode; recombinant hC5a (EC90) as competing natural agonist; live CHO-K1 cells; read-out: [Antagonist] B-arrestin2 recruitment: Average IC50
T1 construct: β-galactosidase fragment (PathHunter enzyme complementation); host or cells: CHO-K1 (PathHunter CHO-K1 C5aR1 β-arrestin cell line)
T1 sequence (P21730 1-350): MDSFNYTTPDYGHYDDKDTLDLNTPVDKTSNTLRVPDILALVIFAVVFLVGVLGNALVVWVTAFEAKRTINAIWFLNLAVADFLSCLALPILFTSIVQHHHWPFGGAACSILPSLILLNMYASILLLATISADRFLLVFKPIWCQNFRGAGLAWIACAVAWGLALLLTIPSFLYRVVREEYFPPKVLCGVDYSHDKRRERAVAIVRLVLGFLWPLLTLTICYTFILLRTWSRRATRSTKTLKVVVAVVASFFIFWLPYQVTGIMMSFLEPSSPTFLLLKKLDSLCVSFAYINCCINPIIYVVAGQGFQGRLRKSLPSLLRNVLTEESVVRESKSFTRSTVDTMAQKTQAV
Protocol: (§1) Exemplary compounds were evaluated for classical GPCR β-arrestin recruitment via complement C5a receptor 1 (C5aR1) activation in live CHO-K1 cells. This cell line expresses two fragments of the […] protein coupled to β-arrestin and C5aR1. Complementation of the two fragments allows for the assessment of both C5aR1 agonism and antagonism. Recombinant hC5a (EC90) was used as the competing natural agonist against disclosed compounds (more information on the expanded protocol and cell line can be found on the manufacturer's website: PathHunter® CHO-K1 C5aR1 β-arrestin cell line, DiscoverX, Catalog No. 93-0557C2). […] IC50 ranges: A: IC50≤500 nM; B: 500 nM<IC50≤5 uM; C: 5 uM<IC50≤100 uM; D: IC50>100 uM.

[2] = target: T1, complement C5a receptor 1 (C5aR1); assay: β-arrestin recruitment via C5aR1 activation in live CHO-K1 cells (PathHunter), agonist mode; assay type: cell-based
Protocol: as §1

pIC50 [1] | [Agonist] B-arrestin2 recruitment: Average EC50 (nM) [2] | [Agonist] B-arrestin2 recruitment: Average EC50 (nM) ([2]; at 10 μM) | Structure (SMILES)
5.30 to 6.30 | Non-Active | – | Cc1cccc(F)c1N1CCC(c2cc3nccnc3n([C@@H]3CCCc4nccnc43)c2=O)CC1 [43a, (R)-7-(1-(2-Fluoro-6-methylphenyl)piperidin-4-yl)-5-(5,6,7,8-tetrahydroquinoxalin-5-yl)pyrido[2,3-b]pyrazin-6(5H)-one]
5.30 to 6.30 | Non-Active | – | Cc1cccc(F)c1N1CCC(c2cc3nccnc3n([C@H]3CCCc4ncccc43)c2=O)CC1 [49b, (S)-7-(1-(2-Fluoro-6-methylphenyl)piperidin-4-yl)-5-(5,6,7,8-tetrahydroquinolin-5-yl)pyrido[2,3-b]pyrazin-6(5H)-one]
4.00 to 5.30 | – | Non-Active at 10 μM | Cc1cnc2cc([C@H]3CC[C@@H](c4c(C)ccnc4F)CC3)c(=O)n(Cc3nccnc3C)c2n1 [135A, 7-((1s,4s)-4-(2-Fluoro-4-methylpyridin-3-yl)cyclohexyl)-3-methyl-5-((3-methylpyrazin-2-yl)methyl)pyrido[2,3-b]pyrazin-6(5H)-one]
4.00 to 5.30 | Non-Active | – | Cc1cnc2cc([C@H]3CC[C@@H](c4c(C)cccc4F)CC3)c(=O)n(Cc3nccnc3C)c2n1 [137A, (S)-7-((1s,4s)-4-(2-Fluoro-6-methylphenyl)cyclohexyl)-3-methyl-5-((3-methylpyrazin-2-yl)methyl)pyrido[2,3-b]pyrazin-6(5H)-one]
> 6.30 | – | Non-Active at 10 μM | Cc1cnc2cc([C@H]3CC[C@H](c4c(C)cccc4F)CC3)c(=O)n(Cc3nccnc3C)c2n1 [137B, (R)-7-((1r,4r)-4-(2-Fluoro-6-methylphenyl)cyclohexyl)-3-methyl-5-((3-methylpyrazin-2-yl)methyl)pyrido[2,3-b]pyrazin-6(5H)-one]
> 6.30 | Non-Active | – | Cc1cnc2cc([C@H]3CC[C@H](c4c(C)ccnc4F)CC3)c(=O)n(Cc3nccnc3C(F)(F)F)c2n1 [143A, 7-((1r,4r)-4-(2-Fluoro-4-methylpyridin-3-yl)cyclohexyl)-3-methyl-5-((3-(trifluoromethyl)pyrazin-2-yl)methyl)pyrido[2,3-b]pyrazin-6(5H)-one]
4.00 to 5.30 | – | Non-Active at 10 μM | Cc1cnc2cc([C@H]3CC[C@@H](c4c(C)ccnc4F)CC3)c(=O)n(Cc3nccnc3C(F)F)c2n1 [146A, 5-((3-(Difluoromethyl)pyrazin-2-yl)methyl)-7-((1s,4s)-4-(2-fluoro-4-methylpyridin-3-yl)cyclohexyl)-3-methylpyrido[2,3-b]pyrazin-6(5H)-one]
> 6.30 | – | Non-Active at 10 μM | Cc1cnc2cc([C@H]3CC[C@@H](c4c(C)ccnc4F)CC3)c(=O)n(Cc3ncccc3C(F)(F)F)c2n1 [147A, 7-((1s,4s)-4-(2-Fluoro-4-methylpyridin-3-yl)cyclohexyl)-3-methyl-5-((3-(trifluoromethyl)pyridin-2-yl)methyl)pyrido[2,3-b]pyrazin-6(5H)-one]
> 6.30 | Non-Active | – | Cc1cnc2cc([C@H]3CC[C@H](c4c(C)ccnc4F)CC3)c(=O)n(Cc3ncccc3C(F)(F)F)c2n1 [147B, 7-((1r,4r)-4-(2-Fluoro-4-methylpyridin-3-yl)cyclohexyl)-3-methyl-5-((3-(trifluoromethyl)pyridin-2-yl)methyl)pyrido[2,3-b]pyrazin-6(5H)-one]

The remaining lines, values behind:

Structure (SMILES) | pIC50 [1] | [Agonist] B-arrestin2 recruitment: Average EC50 (nM) [2] | [Agonist] B-arrestin2 recruitment: Average EC50 (nM) ([2]; at 10 μM)
Cc1cccc(F)c1N1CCC(c2cc3nccnc3n([C@H]3CCCc4nccnc43)c2=O)CC1 [43b, (S)-7-(1-(2-Fluoro-6-methylphenyl)piperidin-4-yl)-5-(5,6,7,8-tetrahydroquinoxalin-5-yl)pyrido[2,3-b]pyrazin-6(5H)-one] | 5.30 to 6.30 | Non-Active | –
Cc1cccc(F)c1N1CCC(c2cc3nccnc3n([C@@H]3CCCc4ncccc43)c2=O)CC1 [49a, (R)-7-(1-(2-Fluoro-6-methylphenyl)piperidin-4-yl)-5-(5,6,7,8-tetrahydroquinolin-5-yl)pyrido[2,3-b]pyrazin-6(5H)-one] | 4.00 to 5.30 | Non-Active | –
Cc1cccc(F)c1N1CCC(c2cc3nccnc3n([C@@H]3CCCc4ccccc43)c2=O)CC1 [53a, (R)-7-(1-(2-Fluoro-6-methylphenyl)piperidin-4-yl)-5-(1,2,3,4-tetrahydronaphthalen-1-yl)pyrido[2,3-b]pyrazin-6(5H)-one] | 4.00 to 5.30 | Non-Active | –
Cc1cccc(F)c1N1CCC(c2cc3nccnc3n([C@H]3CCCc4ccccc43)c2=O)CC1 [53b, (S)-7-(1-(2-Fluoro-6-methylphenyl)piperidin-4-yl)-5-(1,2,3,4-tetrahydronaphthalen-1-yl)pyrido[2,3-b]pyrazin-6(5H)-one] | 5.30 to 6.30 | Non-Active | –
Cc1cnc2cc(C3CCN(c4c(C)cccc4F)CC3)c(=O)n([C@H]3CCCc4nccnc43)c2n1 [61a, (S)-7-(1-(2-Fluoro-6-methylphenyl)piperidin-4-yl)-3-methyl-5-(5,6,7,8-tetrahydroquinoxalin-5-yl) pyrido[2,3-b]pyrazin-6(5H)-one] | 5.30 to 6.30 | Non-Active | –
Cc1cnc2cc(C3CCN(c4c(C)cccc4F)CC3)c(=O)n([C@@H]3CCCc4nccnc43)c2n1 [61b, (R)-7-(1-(2-fluoro-6-methylphenyl)piperidin-4-yl)-3-methyl-5-(5,6,7,8-tetrahydroquinoxalin-5-yl)pyrido[2,3-b]pyrazin-6(5H)-one] | > 6.30 | Non-Active | –
Cc1cnc2cc([C@H]3CC[C@H](c4c(C)ccnc4F)CC3)c(=O)n(Cc3nccnc3C)c2n1 [135B, 7-((1r,4r)-4-(2-Fluoro-4-methylpyridin-3-yl)cyclohexyl)-3-methyl-5-((3-methylpyrazin-2-yl)methyl)pyrido[2,3-b]pyrazin-6(5H)-one] | 4.00 to 5.30 | – | Non-Active at 10 μM
Cc1ccc2nc(C3CCN(c4c(C)cccc4F)CC3)c(=O)n(Cc3ncccc3C(F)(F)F)c2c1 [142A, 3-(1-(2-Fluoro-6-methylphenyl)piperidin-4-yl)-7-methyl-1-((3-(trifluoromethyl)pyridin-2-yl)methyl)quinoxalin-2(1H)-one] | < 4.00 | Non-Active | –
Cc1cnc2cc([C@H]3CC[C@@H](c4c(C)ccnc4F)CC3)c(=O)n(Cc3nccnc3C(F)(F)F)c2n1 [143B, 7-((1s,4s)-4-(2-Fluoro-4-methylpyridin-3-yl)cyclohexyl)-3-methyl-5-((3-(trifluoromethyl)pyrazin-2-yl)methyl)pyrido[2,3-b]pyrazin-6(5H)-one] | 5.30 to 6.30 | Non-Active | –
Cc1ccc2nc(C3CCN(c4c(C)cccc4F)CC3)c(=O)n(Cc3nccnc3C(F)(F)F)c2c1 [144A, 3-(1-(2-Fluoro-6-methylphenyl)piperidin-4-yl)-7-methyl-1-((3-(trifluoromethyl)pyrazin-2-yl)methyl)quinoxalin-2(1H)-one] | < 4.00 | – | Non-Active at 10 μM
Cc1ccc2c(c1)nc(C1CCN(c3c(C)cccc3F)CC1)c(=O)n2Cc1nccnc1C(F)(F)F [144B, 3-(1-(2-Fluoro-6-methylphenyl)piperidin-4-yl)-6-methyl-1-((3-(trifluoromethyl)pyrazin-2-yl)methyl)quinoxalin-2(1H)-one] | < 4.00 | – | Non-Active at 10 μM
Cc1cnc2cc([C@H]3CC[C@H](c4c(C)ccnc4F)CC3)c(=O)n(Cc3nccnc3C(F)F)c2n1 [146B, 5-((3-(Difluoromethyl)pyrazin-2-yl)methyl)-7-((1r,4r)-4-(2-fluoro-4-methylpyridin-3-yl)cyclohexyl)-3-methylpyrido[2,3-b]pyrazin-6(5H)-one] | 5.30 to 6.30 | – | Non-Active at 10 μM
Cc1cnc2cc([C@H]3CC[C@@H](c4c(C)cccc4F)CC3)c(=O)n(Cc3nccnc3C(F)F)c2n1 [148A, 5-((3-(Difluoromethyl)pyrazin-2-yl)methyl)-7-((1s,4s)-4-(2-fluoro-6-methylphenyl)cyclohexyl)-3-methylpyrido[2,3-b]pyrazin-6(5H)-one] | 5.30 to 6.30 | Non-Active | –
Cc1cnc2cc([C@H]3CC[C@H](c4c(C)cccc4F)CC3)c(=O)n(Cc3nccnc3C(F)F)c2n1 [148B, 5-((3-(Difluoromethyl)pyrazin-2-yl)methyl)-7-((1r,4r)-4-(2-fluoro-6-methylphenyl)cyclohexyl)-3-methylpyrido[2,3-b]pyrazin-6(5H)-one] | > 6.30 | Non-Active | –
